IC50 data for 17 compounds are collected here from patent US20240269304A1, “BCL-XL INHIBITOR ANTIBODY-DRUG CONJUGATES AND METHODS OF USE THEREOF” (Novartis AG, priority 2020, published 2024).

pIC50: −log10 of the molar value. Where two headings read alike, the source gives them in different places.

This assay has as its system H1650 cells. Description: CellTiterGlo (CTG) cell viability, 3D, 120 h, H1650 (Example 8). Format: cell-based, human. On the procedure:
H1650 cells were cultivated in RPMI supplemented with 10% heat inactivated fetal bovine serum, penicillin (100 IU/ml), streptomycin (100 μg/ml) and L-glutamine (2 mM). Cell lines were cultured at 37° C. in a humidified atmosphere containing 5% 002. Cells were seeded in 96 microwell round bottom plates (96 microwell Low attachment plates , Costar reference 7007) and exposed to the payloads or ADCs for 120 h (serially diluted; 9 concentrations each, duplicates). Effects of payloads or ADCs on cell viability were assessed after 5 days of incubation at 37° C./5% CO2 by quantification of cellular ATP levels using CellTiterGlo at 75 μL reagent/well. All the conditions were tested in duplicates. Luminescence was quantified on a multipurpose plate reader. IC50S were calculated using standard four-parametric curve fitting. […] Each experiment was performed at least twice, with results being reproducible.
Background: ATP-based viability assays read luminescence as a measure of living cells.

Setting [1] is: H1650 3D, experiment n1, read-out: H1650 3D CTG IC50 n1.
Where [2] appears, read: H1650 3D, experiment n2, read-out: H1650 3D CTG IC50 n2.
Setting [3] is: H1650 3D, mean of n1 and n2, read-out: H1650 3D CTG IC50 Mean of n1 and n2.
Setting [4] is: Homo sapiens, NCI-H1650, H1650 3D, experiment n1, read-out: H1650 3D CTG IC50 n1.
The mark [5] stands for this setting: Homo sapiens, NCI-H1650, H1650 3D, experiment n2, read-out: H1650 3D CTG IC50 n2.
[6] abbreviates: Homo sapiens, NCI-H1650, H1650 3D, mean of n1 and n2, read-out: H1650 3D CTG IC50 Mean of n1 and n2.

As usually defined, the pIC50 is −log10 of the IC50, conventionally taken in molar units. Take `Cc1cc(N(C)c2nc(C(=O)O)c(CCCOc3ccc(C#CC[N+](C)(C)Cc4ccc(NC(=O)[C@H](CCCNC(N)=O)NC(=O)[C@@H](NC(=O)CCOCCN5C(=O)CC(C)C5=O)C(C)C)cc4)cc3F)s2)nnc1Nc1nc2ccccc2s1` (stereo partly drawn) [Ab C - L9A-P2]: the pIC50 was 8.38 under setting [1], 8.15 under setting [2] and 8.25 under setting [3].

On to `Cc1c(Nc2nc3ccccc3s2)nnc2c1CCCN2c1nc(C(=O)[O-])c(CCCOc2ccc(C#CCN3CC[N+](C)(Cc4ccc(NC(=O)[C@H](CCCNC(N)=O)NC(=O)[C@@H](NC(=O)CCOCCN5C(=O)CC(C)C5=O)C(C)C)cc4)CC3)cc2F)s1` (stereo partly drawn) [Ab C - L9A-P10], for which the pIC50 by setting is: under setting [1], 9.52; under setting [2], 9.30; under setting [3], 9.40.

With `Cc1cc(N(C)c2nc(C(=O)[O-])c(CCCOc3ccc(C#CC[N+](C)(C)Cc4ccc(NC(=O)[C@H](C)NC(=O)[C@@H](NC(=O)CCOCCN5C(=O)CC(C)C5=O)C(C)C)cc4CC[C@@H]4O[C@H](C(=O)O)[C@@H](O)[C@H](O)[C@H]4O)cc3F)s2)nnc1Nc1nc2ccccc2s1` (stereo partly drawn) [Ab C - L106A-P2], the pIC50 is 9.00 under setting [1], 9.15 under setting [2] and 9.07 under setting [3].

Consider `Cc1cc(N(C)c2nc(C(=O)[O-])c(CCCOc3ccc(C#CC[N+](C)(C)Cc4ccc(O[C@@H]5O[C@H](C(=O)O)[C@@H](O)[C@H](O)[C@H]5O)c(NC(=O)CCNC(=O)CCOCCN5C(=O)CC(C)C5=O)c4)cc3F)s2)nnc1Nc1nc2ccccc2s1` (stereo partly drawn) [Ab C - L108A-P2], for which the pIC50 runs as follows: under setting [1], 8.68; under setting [2], 9.01; under setting [3], 8.81.

Take `CNCC#Cc1ccc(OCCCc2sc(N3CCCc4c3nnc(Nc3nc5ccccc5s3)c4C)nc2C(=O)O)c(F)c1` [P3, 2-{3-[(1,3-Benzothiazol-2-yl)amino]-4-methyl-5H,6H,7H,8H-pyrido[2,3-c]pyridazin-8-yl}-5-(3-{2-fluoro-4-[3-(methylamino)prop-1-yn-1-yl]phenoxy}propyl)-1,3-thiazole-4-carboxylic acid]: the pIC50 is 8.40 under setting [4], 7.55 under setting [5] and 7.80 under setting [6].

Regarding `Cc1cc(N(C)c2nc(C(=O)O)c(CCCOc3ccc(C#CC(C)N(C)C)cc3F)s2)nnc1Nc1nc2ccccc2s1` (stereo not drawn) [P11, 2-[[6-(1,3-Benzothiazol-2-ylamino)-5-methyl-pyridazin-3-yl]-methyl-amino]-5-[3-[4-[3-(dimethylamino)but-1-ynyl]-2-fluoro-phenoxy]propyl]thiazole-4-carboxylic acid], the negative-log IC50 (pIC50) under setting [4] is 9.15, the pIC50 under setting [5] is 8.92 and the pIC50 under setting [6] was 9.02.

In the case of `Cc1c(Nc2nc3ccccc3s2)nnc2c1CCCN2c1nc(C(=O)O)c(CCCOc2ccc(C#CCNCCN(C)C)cc2F)s1` [P12, 2-[3-(1,3-Benzothiazol-2-ylamino)-4-methyl-6,7-dihydro-5H-pyrido[2,3-c]pyridazin-8-yl]-5-[3-[4-[3-[2-(dimethylamino)ethylamino]prop-1-ynyl]-2-fluoro-phenoxy]propyl]thiazole-4-carboxylic acid], the pIC50 by setting is: under setting [4], 9.02; under setting [5], 8.70; under setting [6], 8.83.

Take `CCN(CC)CC#Cc1ccc(OCCCc2sc(N3CCCc4c3nnc(Nc3nc5ccccc5s3)c4C)nc2C(=O)O)c(F)c1` [P14, 2-[3-(1,3-Benzothiazol-2-ylamino)-4-methyl-6,7-dihydro-5H-pyrido[2,3-c]pyridazin-8-yl]-5-[3-[4-[3-(diethylamino)prop-1-ynyl]-2-fluoro-phenoxy]propyl]thiazole-4-carboxylic acid]: the pIC50 is, setting by setting: under setting [4], 8.72; under setting [5], 8.27; under setting [6], 8.44.

Regarding `Cc1c(Nc2nc3ccccc3s2)nnc2c1CCCN2c1nc(C(=O)O)c(CCCOc2ccc(C#CCN3CCC(F)(F)CC3)cc2F)s1` [P15, 2-{3-[(1,3-Benzothiazol-2-yl)amino]-4-methyl-5H,6H,7H,8H-pyrido[2,3-c]pyridazin-8-yl}-5-(3-{4-[3-(4,4-difluoropiperidin-1-yl)prop-1-yn-1-yl]-2-fluorophenoxy}propyl)-1,3-thiazole-4-carboxylic acid], the pIC50 under setting [4] was 9.01, the pIC50 under setting [5] is 8.92 and the pIC50 under setting [6] is 8.96.

As for `CNCCOC1Cc2c(nnc(Nc3nc4ccccc4s3)c2C)N(c2nc(C(=O)O)c(CCCOc3ccc(C#CCN(C)C)cc3F)s2)C1` (stereo not drawn) [P16, 2-{3-[(1,3-Benzothiazol-2-yl)amino]-4-methyl-6-[2-(methylamino)ethoxy]-5H,6H,7H,8H-pyrido[2,3-c]pyridazin-8-yl}-5-(3-{4-[3-(dimethylamino)prop-1-yn-1-yl]-2-fluorophenoxy}propyl)-1,3-thiazole-4-carboxylic acid], the pIC50 runs as follows: under setting [4], 8.21; under setting [5], 8.21; under setting [6], 8.21.

Consider `Cc1c(Nc2nc3ccccc3s2)nnc2c1CCCN2c1nc(C(=O)O)c(CCCOc2ccc(C#CCN3CCCCC3)cc2F)s1` [P18, 2-[3-(1,3-Benzothiazol-2-ylamino)-4-methyl-6,7-dihydro-5H-pyrido[2,3-c]pyridazin-8-yl]-5-[3-[2-fluoro-4-[3-(1-piperidyl)prop-1-ynyl]phenoxy]propyl]thiazole-4-carboxylic acid], for which the negative logarithm of the IC50 (pIC50) is 8.74 under setting [4], 8.46 under setting [5] and 8.58 under setting [6].

For the compound `Cc1c(Nc2nc3ccccc3s2)nnc2c1CCCN2c1ccc(-c2cnn(C[C@]34C[C@]5(C)C[C@](C)(C3)C[C@@](OCCNCC(CO)CO)(C5)C4)c2C)c(C(=O)O)n1` [P23, 6-[3-(1,3-benzothiazol-2-ylamino)-4-methyl-6,7-dihydro-5H-pyrido[2,3-c]pyridazin-8-yl]-3-[1-[[3-[2-[[3-hydroxy-2-(hydroxymethyl)propyl]amino]ethoxy]-5,7-dimethyl-1-adamantyl]methyl]-5-methyl-pyrazol-4-yl]pyridine-2-carboxylic acid], the pIC50 was 8.40 under setting [4], 8.55 under setting [5] and 8.47 under setting [6].

Regarding `Cc1c(Nc2nc3ccccc3s2)nnc2c1CCCN2c1ccc(-c2cnn(C[C@]34C[C@]5(C)C[C@](C)(C3)C[C@@](OCCNC(CO)CO)(C5)C4)c2C)c(C(=O)O)n1` [P24, 6-[3-(1,3-benzothiazol-2-ylamino)-4-methyl-6,7-dihydro-5H-pyrido[2,3-c]pyridazin-8-yl]-3-[1-[[3-[2-[[2-hydroxy-1-(hydroxymethyl)ethyl]amino]ethoxy]-5,7-dimethyl-1-adamantyl]methyl]-5-methyl-pyrazol-4-yl]pyridine-2-carboxylic acid], the pIC50 under setting [4] is 8.68, the negative-log IC50 (pIC50) under setting [5] was 8.74 and the pIC50 under setting [6] is 8.71.

For `Cc1cc(N(C)c2ccc(-c3cnn(C[C@]45C[C@]6(C)C[C@](C)(C4)C[C@@](OCCNCCCO)(C6)C5)c3C)c(C(=O)O)n2)nnc1Nc1nc2ccccc2s1` [P26, 6-[[6-(1,3-benzothiazol-2-ylamino)-5-methyl-pyridazin-3-yl]-methyl-amino]-3-[1-[[3-[2-(3-hydroxypropylamino)ethoxy]-5,7-dimethyl-1-adamantyl]methyl]-5-methyl-pyrazol-4-yl]pyridine-2-carboxylic acid], the negative-log IC50 (pIC50) is 9.17 under setting [4], 9.16 under setting [5] and 9.16 under setting [6].

Consider `Cc1c(Nc2nc3ccccc3s2)nnc2c1CCCN2c1ccc(-c2cnn(C[C@]34C[C@]5(C)C[C@](C)(C3)C[C@@](OCCN(C)C)(C5)C4)c2C)c(C(=O)O)n1` [P27, 6-{3-[(1,3-benzothiazol-2-yl)amino]-4-methyl-6,7-dihydropyrido[2,3-c]pyridazin-8(5H)-yl}-3-[1-({3-[2-(dimethylamino)ethoxy]-5,7-dimethyladamantan-1-yl}methyl)-5-methyl-1H-pyrazol-4-yl]pyridine-2-carboxylic acid], for which the negative logarithm of the IC50 (pIC50) runs as follows: under setting [4], 9.66; under setting [5], 9.52; under setting [6], 9.59.

Consider `Cc1c(Nc2nc3ccccc3s2)nnc2c1CCCN2c1nc(C(=O)O)c(CCCOc2ccc(C#CCN(C)C)cc2)s1` [P28, 2-[3-(1,3-benzothiazol-2-ylamino)-4-methyl-6,7-dihydro-5H-pyrido[2,3-c]pyridazin-8-yl]-5-[3-[4-[3-(dimethylamino)prop-1-ynyl]phenoxy]propyl]thiazole-4-carboxylic acid], for which the pIC50 by setting is: under setting [4], 9.41; under setting [5], 9.74; under setting [6], 9.54.

On to `COCCCNCCOC12CC3(C)CC(C)(CC(Cn4ncc(-c5ccc(N(C)c6cc(C)c(Nc7nc8ccccc8s7)nn6)nc5C(=O)O)c4C)(C3)C1)C2` [P29, 6-[[6-(1,3-benzothiazol-2-ylamino)-5-methyl-pyridazin-3-yl]-methyl-amino]-3-[1-[[3-[2-(3-methoxypropylamino)ethoxy]-5,7-dimethyl-1-adamantyl]methyl]-5-methyl-pyrazol-4-yl]pyridine-2-carboxylic acid], for which the pIC50 under setting [4] was 9.24, the pIC50 under setting [5] is 9.33 and the negative-log IC50 (pIC50) under setting [6] is 9.28.
